From patent publication US12678384B2, “Sanitizing compositions containing ionic liquid” (CAGE BIO INC., priority 2020, dated 2026)
Read-outs that look alike come from different tables or passages of the source.

Columns and labels:
[1] = in vivo
Procedure: Distilled water was used as a negative control. The patches were removed by the subjects after 24 h and a new one was applied by the site staff at the same exact site at the next visit. The subjects reported to the site for a total of 9 visits, 3 each week. During each visit the application area was observed by the study investigator and a new patch was applied.
This cosmetic study was approved by an IRB and conducted by AMA Laboratories Inc. in New York. […] The application area was occluded with hypoallergenic tape. The subjects were required to keep the tape for 24 h. At each visit, the application site was evaluated for skin irritation on a 5-point scale (0-4). […] The subjects were then evaluated for any skin reactions after 24 and 48 h.

[2] = test system: human Coronavirus strain 229E (hCoV229E) (ATCC #VR-740); settings: for TCID10 (log10): 5% w/w in purified water, virus control 6.50; for CPE (cytopathic/cytotoxic effect), four replicate wells: 5% w/w
[3] = test system: E. coli; experiment: In vivo study of residual antimicrobial efficacy on finger taps (Example 7); settings: finger taps inoculated with E. coli 30 min (controls) or 30 min, 1 hr, 2 hrs (test article) post application
Procedure: • 1) Wash hands with nonmedicated soap to remove surface dirt and oil, dried, and finally decontaminate with 70% isopropyl alcohol. Allow to air dry. • 2) Apply test article (Sanitizer A containing 5% CAGE) and controls (70% Alcohol and DI Water or 0.9% Sterile Saline Solution) on each finger tap to cover it completely. Let it dry. • 3) Inoculate the finger taps #1-3 with 10 μL of high-concentrated suspension of E. coli at 30 min of post-application. • 4) Wait for 60 sec (contact time) • 5) Tap the finger on the TSA agar plate and transfer plates #1-3 into the incubator set at 37° C. • 6) Apply 10 μL of inoculum on Finger #4 at 1 hr. of post application. • 7) Wait for 60 sec and tap the finger on the TSA agar plate. Transfer plate into the incubator set at 37° C. • 8) Apply 10 μL of inoculum on Finger #5 at 2 hrs of post application. • 9) Wait for 60 sec and tap the finger on the TSA agar plate. Transfer plate into the incubator set at 37° C. • 10) Observe bacterial growth after 24 hrs in incubator.

Compound | other adverse events reported in the study [1] | sensitization response [1] | subjects showing any skin reactions in the first 3 visits (7-days) [1] | subjects that did not display any irritation throughout the entire 21-day study [1] [subjects] | subjects that experienced some skin irritation [1] [subjects] | TCID10 (log10) ([2]; 5 minutes exposure) | TCID10 (log10) ([2]; 10 minutes exposure) | CPE (cytopathic/cytotoxic effect), four replicate wells ([2]; 5 minutes exposure, dilution (−Log10) −3) | CPE (cytopathic/cytotoxic effect), four replicate wells ([2]; 5 minutes exposure, dilution (−Log10) −4) | CPE (cytopathic/cytotoxic effect), four replicate wells ([2]; 5 minutes exposure, dilution (−Log10) −5) | CPE (cytopathic/cytotoxic effect), four replicate wells ([2]; 5 minutes exposure, dilution (−Log10) −6) | CPE (cytopathic/cytotoxic effect), four replicate wells ([2]; 5 minutes exposure, dilution (−Log10) −7) | CPE (cytopathic/cytotoxic effect), four replicate wells ([2]; 10 minutes exposure, dilution (−Log10) −3) | CPE (cytopathic/cytotoxic effect), four replicate wells ([2]; 10 minutes exposure, dilution (−Log10) −4) | CPE (cytopathic/cytotoxic effect), four replicate wells ([2]; 10 minutes exposure, dilution (−Log10) −5) | CPE (cytopathic/cytotoxic effect), four replicate wells ([2]; 10 minutes exposure, dilution (−Log10) −6) | CPE (cytopathic/cytotoxic effect), four replicate wells ([2]; 10 minutes exposure, dilution (−Log10) −7) | microbial growth after 24 hrs at 37° C. [3]
choline geranate [CG-101] | no other adverse events | did not create any sensitization response | None | 43 | 8 | ≤2.50 | ≤2.50 | 0000 | 0000 | 0000 | 0000 | 0000 | 0000 | 0000 | 0000 | 0000 | 0000 | 
CCO [70% Ethanol, Ethanol] |  |  |  |  |  |  |  |  |  |  |  |  |  |  |  |  |  | Microbial growth was observed
